What was measured:
minipigs = test: Studies on the hemopoietic system (methemoglobinemia), minipig; assay type: in vivo
Description: Studies on the hemopoietic system were performed in rat, monkey and minipig.

[1] = pH dependence of solubility of LMT.2MsOH in buffered aqueous solutions at 25° C.; assay type: physicochemical; conditions: aqueous buffer, thermodynamic from solid
Description: In related experiments three buffered stock solutions were prepared (pH 2, pH 3, and pH 7) as follows: A solution of (0.2 M) potassium chloride (KCl) (0.745 g in 50 mL of deionised water) was initially prepared. From this solution 50 mL was taken and diluted with approximately 80 mL of deionised water. A (0.2 M) hydrochloric acid (HCl) solution was then used to adjust the pH to 2, before further dilution with deionised water to make up to 200 mL. A final pH of 2.00 at 21.6° C. was recorded. A solution of (0.1 M) potassium hydrogen phthalate (2.042 g in 100 mL of deionised water) was initially prepared. From this solution 100 mL was taken and diluted with approximately 50 mL of deionised water. A 0.2 M HCl solution was then used to adjust the pH to 3, before further dilution with deionised water to make up to 200 mL. A final pH of 2.99 at 21.7° C. was recorded. A solution of (0.1 M) potassium phosphate monobasic (KH2PO4) (1.370 g in 100 mL of deionised water) was initially prepared. From this solution 100 mL was taken and diluted with approximately 80 mL of deionised water. A 0.5 M sodium hydroxide (NaOH) solution was then used to adjust the pH to 7, before further dilution with deionised water to make up to 200 mL. A final pH of 7.07 at 22° C. was recorded. […] This vial was placed into a water bath set at 25° C. To the solution was added LMT.2MsOH in 1-1.5 g portions. After each addition, a 10 minutes stir time was allowed to ensure maximum opportunity for dissolution. The homogeneity of the mixture was judged by eye. If solid was still present, after the stir time, as judged by visual inspection, the saturation point was judged to have been reached. The viscosity of the resulting mixtures precluded adequate isolation of the excess solid, therefore it was not possible to determine exact solubility values.

[2] = Solubility of LMT salts in aqueous HCl solutions at 37° C.; assay type: physicochemical; conditions: aqueous HCl solution pH 2.00 (21.4° C.); lower limit complete dissolution, upper limit saturation
Description: Two aqueous solutions (pH 2.00 and 3.01 at 21.4° C.) were prepared by carefully adding HCl (5 M) to deionised water. In each experiment a 5 ml aliquot of one of the aforementioned solutions was heated to 37° C. […] This step was repeated until no further dissolution took place.

[3] = Dynamic vapour sorption (DVS); assay type: physicochemical; conditions: crystalline, 25° C., relative humidity range between 0% and 70%
Description: FIGS. 15a and 15b show the dynamic vapour sorption (DVS) curve for crystalline LMT.2MsOH measured at 25° C. with 5%/h scanning rate. The horizontal dashed lines indicate steps of water uptake of one equivalent. […] Above this r.h., the water uptake increased rapidly, and the sample ultimately deliquesced. Upon drying, the water content decreased again to approximately 4 equiv. at 50% r.h.
Projekt Messtechnik SPS 11-100n water vapor sorption analyzer. The samples were placed in aluminum crucibles on top of a microbalance and were equilibrated at 25° C. and 50% r.h. before starting a pre-defined humidity program at 25° C. (50-0-95-50% r.h., scanning with Δ r.h.=5% h^−1 and with ‘isohumid’ equilibration periods at the extreme values).

female Wistar rats = test: 14 day oral administration to rats: toxicology and neutrophil response; assay type: in vivo
From the text: Table: Neutrophil response in rats following 14 day oral administration of different salt forms of LMT.

[4] = target: full-length human tau protein (htau40) and truncated tau (295-390, dGA) in 3T6 mouse cells (Homo sapiens, UniProt P10636); test: Cell-based tau aggregation assay
rats = test: Studies on the hemopoietic system (methemoglobinemia), rat; assay type: in vivo
[5] = Pharmacokinetics: plasma concentration of the MT moiety in pig; assay type: in vivo; conditions: oral doses 2 and 15 mg/kg
[6] = target: T1, truncated tau (amino acids 297-391) in solution binding to solid-phase bound truncated tau (residues 297-390) (Homo sapiens, UniProt P10636); test: Solid phase assay for tau aggregation (tau-tau binding, B50); conditions: concentration at which tau-tau binding is decreased by 50%; mean ± SE
T1 construct: made in house
From the text: The tau-tau aggregation assay uses purified recombinant tau fragments in a solid-phase immunoassay. Methods are described in detail in e.g. WO 96/30766. Briefly, the assay measures the binding of truncated tau (amino acids 297-391) in solution to solid-phase bound truncated tau (residues 297-390). Binding of the former is detected with the antibody mAb 423, which specifically recognises peptides containing a C-terminal Glu-391 residue. The Tau complex formed in vitro is similar to the aggregated complex that forms in Alzheimer's disease as a consequence of the stability of the pathological Tau-Tau binding interaction through a 94/95-amino acid repeat domain (residues 297-390), found in the proteolytically stable core of the paired helical filament.
The B50 value (expressed as mean±SE) is determined as the concentration of compound at which tau-tau binding is decreased by 50%.

[7] = test system: rat, stomach (non glandular); test: Gastric irritation: 28-day rat study with LMT.2MsOH; assay type: in vivo; parameters: key to Gastritis, grade 2 (slight): incidence / Gastritis, grade 3 (moderate): incidence / Gastritis, total incidence / Inflammatory cell infiltration, grade 1 (minimal): incidence / Inflammatory cell infiltration, grade 2 (slight): incidence / Gastritis, grade 1 (minimal): incidence: “—” = finding not present; 1 = minimal; 2 = slight; 3 = moderate; 4 = moderately severe; 5 = severe; conditions: for Gastritis, total incidence / Gastritis, grade 1 (minimal): incidence / Gastritis, grade 2 (slight): incidence / Gastritis, grade 3 (moderate): incidence / Inflammatory cell infiltration, grade 1 (minimal): incidence / Inflammatory cell infiltration, grade 2 (slight): incidence: 90 mg/kg/day, 28-day, 10 examined; for Gastritis, total incidence: number of animals; for Gastritis, grade 1 (minimal): incidence / Gastritis, grade 2 (slight): incidence / Gastritis, grade 3 (moderate): incidence / Inflammatory cell infiltration, grade 1 (minimal): incidence / Inflammatory cell infiltration, grade 2 (slight): incidence: terminal kill, cell = number of animals
From the text: Study (28-day rat study with LMT.2MsOH): Incidence and severity of selected microscopic findings in sternum, liver, spleen and stomach from terminal animals

T1 sequence (P10636 614-708): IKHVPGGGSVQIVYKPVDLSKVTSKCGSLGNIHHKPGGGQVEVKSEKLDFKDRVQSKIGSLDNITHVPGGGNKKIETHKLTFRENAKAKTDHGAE
T1 sequence (P10636 614-707): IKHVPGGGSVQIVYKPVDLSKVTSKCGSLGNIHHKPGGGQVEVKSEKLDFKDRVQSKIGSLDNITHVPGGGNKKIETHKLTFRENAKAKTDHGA

SMILES: CN(C)c1ccc2c(c1)Sc1cc(N(C)C)ccc1N2.CS(=O)(=O)O.CS(=O)(=O)O [LMT.2MsOH, N,N,N′,N′-tetramethyl-10H-phenothiazine-3,7-diaminium bis(methanesulfonate)]
- Lowest dose at which methemoglobinemia was observed (minipigs): 10 mg MT/kg/day
- Methemoglobinemia (minipigs; 3 mg MT/kg/day, first 28-days of dosing in the 9-month study): no indications of methemoglobinemia
- solubility at 10 min ([1]; buffered aqueous solution pH 2.00, 25° C.): 1600 to 1770 mg/mL
- solubility at 10 min ([1]; buffered aqueous solution pH 2.99, 25° C.): 1980 to 2090 mg/mL
- solubility at 10 min ([1]; buffered aqueous solution pH 7.07, 25° C.): 2030 to 2110 mg/mL
- Solubility g/5 ml (37° C.) [2]: 8.825-9.943 g/5 ml
- Weight change in dynamic vapour sorption [3]: less than 0.5%
- Neutropaenia in prepared blood smears (mature neutrophils) (female Wistar rats; 14 days): no decrease
- Neutrophils (total neutrophils as percentage of total white cells) (female Wistar rats; 14 days oral, 95 mg MT/kg/day Days 1-10, 60 mg MT/kg/day Days 11-14): 18.30%
- Dose-related deaths (female Wistar rats; 14 days oral, animal numbers per group of 8 rats): 0/8
- Early neutrophils (frequency of presence of immature neutrophils per animal group) (female Wistar rats; 14 days oral, animals per group of 8): 1/8
- EC50 [4]: 0.19 ± 0.04 µM
- therapeutic index greater compared with MTC [4]: 63%
- THx, therapeutic index (THx = LD50/EC50) ([4]; LD50/EC50): 179
- Lowest dose at which methemoglobinemia was observed (rats): 30 mg MT/kg/day
- Cmax of MT moiety in plasma, fold greater than that for LMT.2HCl or LMT.2HBr [5]: more than 2 fold
- Tmax ([5]; plasma): 1 h
- IC50 [6]: 238 ± 74.2 µM
- Gastric irritation compared with LMT.2HBr ([7]; 28-day rat studies): less gastric irritation
- Gastritis, total incidence ([7]; female rats): 3
- Gastritis, grade 1 (minimal): incidence ([7]; female rats): —
- Gastritis, grade 2 (slight): incidence ([7]; female rats): 2
- Gastritis, grade 3 (moderate): incidence ([7]; female rats): 1
- Inflammatory cell infiltration, grade 1 (minimal): incidence ([7]; female rats): 4
- Inflammatory cell infiltration, grade 2 (slight): incidence ([7]; female rats): 1
- Gastritis, total incidence ([7]; male rats): 2
- Gastritis, grade 1 (minimal): incidence ([7]; male rats): —
- Gastritis, grade 2 (slight): incidence ([7]; male rats): 2
- Gastritis, grade 3 (moderate): incidence ([7]; male rats): —
- Inflammatory cell infiltration, grade 1 (minimal): incidence ([7]; male rats): 4
- Inflammatory cell infiltration, grade 2 (slight): incidence ([7]; male rats): —
